Reference: patent US9725702B2, “Laccase from ganoderma lucidum capable of enhancing enzymatic degradation of lignocellulolytic biomass” (DANMARKS TEKNISKE UNIVERSITET, priority 2012, dated 2017)
Like-named read-outs stand apart in the source and are kept apart here.

Columns and labels:
[1] = test system: LacGL1 laccase from Ganoderma lucidum, expressed in Pichia pastoris; format: biochemical
Method: (§1) The laccase activity was measured based on a modified method of Ters et al. (2009). The laccase activity was defined as the amount of the enzyme required to oxidise 1 μmol of ABTS per minute at 25° C., and pH 4.7. The assay mixture contained: 0.1 M citrate-phosphate buffer (255 μL, pH 4.7), ABTS (5 μL, 4 mM (ABTS stock solution)), and pre-diluted laccase (5 μL) that ensured the linear range of Michaelis-Menten kinetics. The oxidation of ABTS was monitored at 420 nm (ε420=36800 M^−1cm^−1) for 2 min. in an Infinite 200 microtiter plate reader (Tecan, Salzburg, Austria). Laccase activity assays on the substrates: hydroquinone (248 nm), 2.6-dimethoxyphenol (470 nm), and guaiacol (436 nm) was done similarly with the substrate concentration as described in Table 2 using the following extinction coefficient values: 17.542 M^−1cm^−1, 35.645 M^−1cm^−1, and 6.400 M^−1cm^−1, respectively (Minussi et al. 2007). The data collection was monitored by the program Tecan i-control version 1.5.14.0 (Tecan, Salzburg, Austria).

[2] = test system: fungal laccase; format: biochemical, Ganoderma lucidum
Method: as §1

[3] = test system: laccase from the crude extract of G. lucidum (Lac_GLCE); format: biochemical, Ganoderma lucidum
Method: as §1

[4] = Laccase-cellulase catalyzed hydrolysis of pretreated biomass, glucose release; format: biochemical; conditions: with cellulase 1 or 2, pH 5.1, 50° C., 30 hour, p<0.05
Method: (§2) FIG. 13. A graphical comparison of glucose released over time during hydrolysis of STEX-SCB at pH 5.1 and 50° C. by each of commercial enzyme preparations Cellulase 1 (CC2) [A]; or Cellulase 2 [B], either alone, or in combination with a laccase enzyme; the tested laccases being respectively LacGL1 and GLlac1 (LacJooSS; Q9HG17) derived from G. lucidum; and laccases derived from Agaricus bisporus (Sigma 40452), Pleurotus ostreatus (Sigma 75117) and, Trametes versicolor (Sigma 51639).
(§3) The commercial fungal laccases were purchased as lyophilized protein samples from Sigma Aldrich. A solution of each of the above 5 laccases was prepared in a citric buffer containing 20% of glycerol (pH 5.1, 100 mM).
(§4) Two different commercially available cellulase enzyme preparations used in the comparative study were “Cellulase 1” and “Cellulase 2”, which were tested in combination with each of the laccases listed above.
(§5) The three different types of pretreated biomass used in the comparative study were sugarcane bagasse, barley straw and wheat straw. The source and pre-treatment of the sugarcane bagasse by steam explosion was as set out in Example 9. […] The composition of the dry and the pretreated biomass were determined according to the US National Renewable Energy Laboratory (NREL) procedures (Sluiter et al, 2010).
(§6) The laccase-cellulase catalyzed hydrolysis of the pretreated biomass samples to release glucose was performed as follows: Hydrolysis of 5% (w/v) samples of pretreated sugarcane bagasse, barley straw, and wheat straw biomass were assayed using an Enzyme/Substrate (E/S) ratio of 0.064% w/w for laccases and of 0.4% w/w for each commercial cellulase preparation in each hydrolysis reaction. The E/S dosage was based on the total protein concentration used, as determined using Pierce BCA (BiCinchoninic Acid) protein assay kit microplate procedure according to manufacturer's instruction (Thermo Fisher Scientific, Rockford, US). […]
(§7) Laccase and cellulase-mediated hydrolysis of the 3 biomass forms, measured as glucose release, are shown graphically in FIGS. 13, 14 and 15. […]

[5] = as above; format: biochemical; conditions: with cellulase 1 or 2, pH 5.1, 50° C., 30 hour, p<0.05; remark: listed apart in the source
Method: as §2, with “14.” for “13.”, “pre-treated barley straw” for “STEX-SCB”
as §3, §4, §5, §6, §7

[6] = as above; format: biochemical; conditions: with cellulase 1 or 2, pH 5.1, 50° C., 30 hour, p<0.05; remark: listed apart in the source
Method: as §2, with “15.” for “13.”, “pre-treated wheaty straw” for “STEX-SCB”
as §3, §4, §5, §6, §7

[7] = cited from earlier work; for Km: ABTS, expressed in Pichia pastoris (Sun et al., 2012)
[8] = Michaelis constant (Km) of laccase for ABTS, Hanes-Wolf plot; format: biochemical; conditions: substrate ABTS

O[C@H](CS)[C@H](O)CS (racemic) [Dithiothreitol]
Inhibition ([1]; 0.5 mM): 100%
Inhibition ([2]; 0.5 mM): 100%
Inhibition ([3]; 0.5 mM): 100%

O=C(O)CN(CCN(CC(=O)O)CC(=O)O)CC(=O)O [EDTA]
Inhibition [1]: 16%
Inhibition [2]: 16-30%
Inhibition [3]: 30%

[F-].[Na+] [Sodium fluoride]
Inhibition ([1]; 0.0001 mM): 8%
Inhibition ([1]; 0.0005 mM): 13%
Inhibition ([1]; 0.001 mM): 19%
Inhibition ([1]; 0.01 mM): 22%
Inhibition ([1]; 0.1 mM): 46%
Inhibition ([2]; 0.1 mM): 46-56%
Inhibition ([3]; 0.0001 mM): 23%
Inhibition ([3]; 0.0005 mM): 24%
Inhibition ([3]; 0.001 mM): 28%
Inhibition ([3]; 0.01 mM): 38%
Inhibition ([3]; 0.1 mM): 56%

B1: GLlac1: Laccase from Ganoderma lucidum strain 7071-9 (UniProt Q9HG17, SEQ ID NO: 29), expressed in Pichia pastoris (protein, listed as Ganoderma lucidum)
chain: MVKFQSLLSCVTLLFAASAHAGIGPKADLTISNANIAPDGYTRAAVVVNGVFPGPLITGNKGDRFQLNVIDQLTNHTMLKTTSIHWHGFFQKGTNWADGPAFINQCPIASGHSFLYDFQVPDQAGTFWYHSHLSTQYCDGLRGPFVVYDPKDPLKGLYDVDNDSTVITLSDWYHVAARLGPSFPLGSDSTLINGLGRSTTNATAGLAVINVTQGKRYRFRLVSLSCDPNYTFSIDGHDMSVIEADGIATQPVTANAIQIFSAQRYSFVLTANQTIGNYWIRANPSFGNIGFTNGINSAILRYSGADPIEPTTAQQTTQNLLNEVDLHPFVAKQTPGRATQGGTDVAINMVFNFNGSNFFINNASFTPPTVPVLLQILSGAQAAQDLLPSGSVYTLPINKSIELTFPATVNAPGAPHPFHLHGHSFAVVRSAGSTEYNYNNPVWRDVVSTGTPAAGDNVTIRFQTDNPGPWFLHCHIDFHLEAGFAVVFAEDTADTSLANHVPQAWSDLCPTYDALSADDH
glucose release compared to the other tested laccases [4]: significantly enhanced
glucose release compared to the other tested laccases [5]: significantly enhanced
glucose release compared to the other tested laccases [6]: significantly enhanced
Km [7]: 995 µM
Km ([7]; listed as GILCC1): 996 µM
pH optimum ([7]; literature): 2.6

B2: Ganoderma lucidum CBS229.93 laccase: Native laccase secreted by Ganoderma lucidum CBS229.93, about 62.5 kDa (protein, listed as Ganoderma lucidum)
chain: MAKFQSLLSCVTLLFAASAYAGIGPKTDLTISNADVAPDGYTRAAVVVNGVFPAPLITGNKGDRFQLNVIDQMTNHTMLKSTSIHWHGFFQKGTNWADGPAFINQCPISSGHSFLYDFQVPDQAGTFWYHSHLSTQYCDGLRGPFVVYDPKDPLKKLYDIDDDSTVITLTDWYHVAARLGPRFPLGSDSTLINGLGRSTTNVTADLAVINVTQGKRYRFRLVSLSCDPNYTFSIDDHNMTVIEADGIETQPVTVNAIQIFSAQRYSFVLTANQTIDNYWIRANPNFGNVGFTDGINSAILRYAGADPVEPTTSQQTTQNLLNEVDLHPFVPKRTPGQPTQGGVDTAINMVFNFNGSNFFINNASFVPPTVPVLLQILSGAQAAQDLLPSGSVYTLPVNKSIELTFPATANAPGAPHPFHLHGHAFAVVRSAGSTVYNYDNPVWRDVVSTGTPAAGDNVTIRFQTDNPGPWFLHCHIDFHLEAGFAVVFAEDPTDTSLANPVPKAWSDLCPTYDALSVDDQ
Km ([8]; pH 5): 107 µM
Km ([8]; laccase expressed in Ganoderma lucidum CBS229.93 (native)): 107 µM
